Source: US20190365784A1, “USE OF BRASSINOSTEROID ANALOGS FOR THE TREATMENT OF DERMAL DISORDERS BY SELECTIVELY MODULATING LIVER X RECEPTORS (LXR) AND DERMAL DISEASE TREATMENT BY BRASSINOSTEROID ANALOGS ACTING AS SELECTIVE LIVER X RECEPTOR (LXR) MODULATORS” (CONSEJO NACIONAL DE INVESTIGACIONES CIENTÍFICAS Y TÉCNICAS …, priority 2015, published 2019)

How the values were obtained:
[1] = tested on: SRBEP-1; assay: SRBEP-1 expression in HepG2 cells (real time PCR); assay type: cell-based, human; details: 1 uM, 3 uM and 10 uM, 6 h
Experimental: (§2) The cells were incubated for 6 h in the presence of either Compound I (10 uM), or Compound II (10 uM), or the commercial LXR agonist GW3965 (1 uM), or Vehicle [DMSO, 0.1% (v/v)]). To obtain RNA, at the end of the incubation the cells were collected by centrifugation at 1,000 rpm for 2 min, washed with phosphate buffered saline, and lysed in 300 ul TRIZOL (Invitrogen). RNA samples were suspended in ul of RNAse free water, and their concentration determined (NanoDrop spectrophotometer). The ratio of the absorbance at 260 and 280 nm was used to assess RNA purity of an RNA preparation, with a value of 1.8-2.0 indicating pure RNA. To obtain cDNA, 1 ug of total RNA was denatured by incubating for 5 min at 70° C., before the addition of a mixture containing 0.5 ug oligo-dT primers and 25 ng/ml of random primers (Invitrogen), 1.0 mM dNTPs (Invitrogen), and 200 U M-MLV reverse transcriptase (Promega); after this the mixture was retrotranscribed at 37° C. for 60 min, followed by an incubation at 95° C. for 5 min to inactivate the enzyme. For the real time PCR amplification (Stratagene Thermal Cycler), cDNA samples were diluted 1/5 to 1/10 depending on the target amplification product. Calibration curves were obtained by use of eight successive 1:2 sample dilutions. Amplifications were carried out in a 25 ul final volume (5 ul cDNA sample plus 20 ul of reaction mixture) in the presence of either 3, 4 or 5 mM MgCl2 (depending on the amplified sequence), 0.25 mM dNTPs (Invitrogen), 1.25 U Taq polymerase (Invitrogen), 1 μM of the specific primers according to the target amplification sequence, and 0.025 μl SYBR Green (Roche). Melting curves were used to assess the specificity of the amplification products. […]

[2] = tested on: fatty acid synthase (FAS or FASN); assay: FASN expression in HepG2 cells (real time PCR); assay type: cell-based, human; details: 1 uM, 3 uM and 10 uM, 6 h
Experimental: as §2

[3] = molecular target: T1, LXR-alpha (Homo sapiens, UniProt Q13133); assay: LXR-alpha/RXR LRE-luciferase reporter in transfected BHK cells; assay type: cell-based; set-up: expressed in transfected cells; host or cells: BHK (baby hamster kidney cells), transient transfection as for HEK293T; details: for stimulation of LXR-alpha-driven gene transcription [(LXRE)-luciferase activity] / effect on LXR-alpha-driven expression of luciferase: 1 uM; for stimulation of LXR-alpha-driven gene transcription [(LXRE)-luciferase activity]: 3 uM and 10 uM; for effect on LXR-alpha-driven expression of luciferase / LXR-alpha-driven luciferase expression, increase compared with vehicle-treated cells: 18 h
T1 sequence (Q13133 1-447): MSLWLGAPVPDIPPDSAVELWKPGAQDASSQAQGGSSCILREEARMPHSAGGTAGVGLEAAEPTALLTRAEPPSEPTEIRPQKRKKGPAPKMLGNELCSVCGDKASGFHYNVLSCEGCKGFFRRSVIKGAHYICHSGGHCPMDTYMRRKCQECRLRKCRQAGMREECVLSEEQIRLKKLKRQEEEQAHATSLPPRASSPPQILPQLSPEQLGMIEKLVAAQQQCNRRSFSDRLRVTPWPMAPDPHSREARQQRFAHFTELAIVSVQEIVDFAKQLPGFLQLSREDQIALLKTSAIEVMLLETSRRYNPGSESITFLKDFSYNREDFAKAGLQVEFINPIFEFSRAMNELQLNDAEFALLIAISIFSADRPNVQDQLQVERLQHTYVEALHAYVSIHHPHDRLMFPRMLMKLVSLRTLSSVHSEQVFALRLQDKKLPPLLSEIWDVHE
T1 sequence (P19793 1-462 partner): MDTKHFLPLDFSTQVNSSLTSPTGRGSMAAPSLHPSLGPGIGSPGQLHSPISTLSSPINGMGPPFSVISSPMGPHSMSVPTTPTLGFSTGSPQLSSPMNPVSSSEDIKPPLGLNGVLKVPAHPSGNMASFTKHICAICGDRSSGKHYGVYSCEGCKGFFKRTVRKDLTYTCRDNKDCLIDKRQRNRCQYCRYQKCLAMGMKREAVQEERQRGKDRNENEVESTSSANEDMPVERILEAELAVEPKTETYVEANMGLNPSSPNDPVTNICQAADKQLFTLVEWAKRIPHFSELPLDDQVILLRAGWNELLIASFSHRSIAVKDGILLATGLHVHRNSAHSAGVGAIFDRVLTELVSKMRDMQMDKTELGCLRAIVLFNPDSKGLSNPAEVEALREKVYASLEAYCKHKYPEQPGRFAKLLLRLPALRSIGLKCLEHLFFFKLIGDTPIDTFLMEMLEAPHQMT
Experimental: B. Baby hamster kidney cells (5×10^5 cells/well) were cultured and transiently transfected as described above (Methods A.) for HEK293T cells. After transfection, the culture medium was replaced by serum-free DMEM, and the cells were incubated for 18 h with either Compound I or Compound II at 1×10^−6 M, 3×10^−6 M or 10^−5 M each, or vehicle [DMSO, 0.1% (v/v) final concentration], or GW3965 at a concentration of 10^−6 M. LXR-alpha activation was determined as described in A.

[4] = tested on: fatty acid synthase (FAS); assay: FAS expression in HL-60 cells (real time PCR); assay type: cell-based, human; details: 10 uM, 6 h
Experimental: (§1) To investigate the effects of Compounds I and II on the expression of three genes involved in lipid metabolism [fatty acid synthase (FAS); and two ATP-dependent cholesterol and phospholipid transporters, such as ABCA1 and ABCG1], human promyelocytic leukemia cells (HL-60) that endogenously express LXR-alpha and LXR-beta were incubated in the presence of either Comp I or Comp II (10 uM), or GW3965 (1 uM) for 6 h. mRNA levels for FAS, ABCA1 and ABCG1 were determined by real time PCR and results were normalized to GAPDH expression. HL-60 (10^6 cells/well) were cultured in RPMI medium supplemented with 5% (v/v) fetal bovine serum, penicillin (100 IU/mL), streptomycin (100 ug/mL) y cyprofloxacin (0.4 ug/mL). […] To obtain RNA, at the end of the incubation the cells were collected by centrifugation at 1,000 rpm for 2 min, washed with phosphate buffered saline, and lysed in 300 ul TRIZOL (Invitrogen). RNA samples were suspended in […] of RNAse free water, and their concentration determined (NanoDrop spectrophotometer). […] To obtain cDNA, 1 ug of total RNA was denatured by incubating for 5 min at 70° C., before the addition of a mixture containing 0.5 ug oligo-dT primers and 25 ng/ml of random primers (Invitrogen), 1.0 mM dNTPs (Invitrogen), and 200 U M-MLV reverse transcriptase (Promega); after this the mixture was retrotranscribed at 37° C. for 60 min, followed by an incubation at 95° C. for 5 min to inactivate the enzyme. For the real time PCR amplification (Stratagene Thermal Cycler), cDNA samples were diluted 1/5 to 1/10 depending on the target amplification product. Calibration curves were obtained by use of eight successive 1:2 sample dilutions. Amplifications were carried out in a 25 ul final volume (5 ul cDNA sample plus 20 ul of reaction mixture) in the presence of either 3, 4 or 5 mM MgCl2 (depending on the amplified sequence), 0.25 mM dNTPs (Invitrogen), 1.25 U Taq polymerase (Invitrogen), 1 μM of the specific primers according to the target amplification sequence, and 0.025 μl SYBR Green (Roche). […]

[5] = tested on: ABCA1; assay: ABCA1 expression in HL-60 cells (real time PCR); assay type: cell-based, human; details: 10 uM, 6 h
Experimental: as §1

[6] = molecular target: T1, LXR-alpha; assay: LXR-alpha/RXR LRE-luciferase reporter in transfected HEK293T cells; assay type: cell-based; details: 10 uM, 18 h
Source text: Since we had previously shown that the beneficial effects of the compounds of the invention are independent of glucocorticoid receptor (GR) activation, we set forth to investigate if they might exert their actions through activation of liver X receptors (LXR). For this purpose we used cultured cells transiently transfected with LXR-alpha, the retinoid X receptor (RXR) and a LXR response element-luciferase reporter (LRE-LUC). A. Human embryonic kidney cells (HEK293T; 5×10^5 cells/well) were cultured in DMEM medium supplemented with 10% (v/v) fetal bovine serum, 100 ug/ml of streptomycin, 100 IU/ml of penicillin and 2 mM glutamine. For the transient transfections, the cell cultures were added with plasmids carrying LXR-alpha (pLXR-alpha; 0.6 ug), the retinoid X receptor (pRXR; 0.2 ug), a LXR response element-luciferase reporter (pRE-LUC; 0.7 ug) and beta-galactosidase gene (pRSV-LacZ; 0.6 ug) as a transfection control, using Lipofectamine 2000 (Invitrogen). […] Compounds III to VI are […] analogs bearing a fluorine atom at C-6. To assess LXR-alpha activation, at the end of the incubation period luciferase activity was measured by use of a luciferase assay system (Promega). The results of three independent assays, carried out in duplicate for each condition, are reported.

Structure (SMILES) | induction of SRBEP-1 expression [1] | induction of FASN expression [2] | stimulation of LXR-alpha-driven gene transcription [(LXRE)-luciferase activity] [3] | effect on LXR-alpha-driven expression of luciferase [3] | LXR-alpha-driven luciferase expression, increase compared with vehicle-treated cells ([3]; 3 uM) [fold] | LXR-alpha-driven luciferase expression, increase compared with vehicle-treated cells ([3]; 10 uM) [fold] | FAS mRNA lower than in vehicle-treated cells [4] [%] | effect on ABCA1 expression [5] | induction of LXR-alpha driven gene expression compared with GW3965 (1 uM) [6]
CC[C@@H](C(C)C)[C@H](O)[C@@H](O)[C@@H](C)[C@H]1CC[C@H]2[C@@H]3CCC4=CC(=O)C=C[C@]4(C)[C@H]3CC[C@]12C [Compound II, (22S,23S)-22,23-dihydroxystigmasta-1,4-dien-3-one] | did not induce | did not induce | within the same concentration range as GW3965 | no effect | 3 | 3 | ~40 | none of the test compounds significantly affected | within the same range as that observed for GW3965
CC[C@@H](C(C)C)[C@H](O)[C@@H](O)[C@@H](C)[C@H]1CC[C@H]2[C@@H]3CCC4=CC(=O)CC[C@]4(C)[C@H]3CC[C@]12C [Compound I, (22S,23S)-22,23-dihydroxystigmast-4-en-3-one] | did not induce | did not induce | within the same concentration range as GW3965 | no effect | 3 |  | ~40 | none of the test compounds significantly affected | within the same range as that observed for GW3965
